Results on 30 compounds are retold here after patent publication US20200392161A1, “SHP2 PHOSPHATASE INHIBITORS AND METHODS OF USE THEREOF” (Relay Therapeutics, Inc., priority 2018, published 2020).

Each structure is given as a SMILES string. Where a name gives a salt, the structure may show the parent alone.

The term IC50 denotes the concentration that gives 50% inhibition.

The test addresses T1, SHP2 (Homo sapiens, UniProt Q06124).
T1 sequence (Q06124 1-593): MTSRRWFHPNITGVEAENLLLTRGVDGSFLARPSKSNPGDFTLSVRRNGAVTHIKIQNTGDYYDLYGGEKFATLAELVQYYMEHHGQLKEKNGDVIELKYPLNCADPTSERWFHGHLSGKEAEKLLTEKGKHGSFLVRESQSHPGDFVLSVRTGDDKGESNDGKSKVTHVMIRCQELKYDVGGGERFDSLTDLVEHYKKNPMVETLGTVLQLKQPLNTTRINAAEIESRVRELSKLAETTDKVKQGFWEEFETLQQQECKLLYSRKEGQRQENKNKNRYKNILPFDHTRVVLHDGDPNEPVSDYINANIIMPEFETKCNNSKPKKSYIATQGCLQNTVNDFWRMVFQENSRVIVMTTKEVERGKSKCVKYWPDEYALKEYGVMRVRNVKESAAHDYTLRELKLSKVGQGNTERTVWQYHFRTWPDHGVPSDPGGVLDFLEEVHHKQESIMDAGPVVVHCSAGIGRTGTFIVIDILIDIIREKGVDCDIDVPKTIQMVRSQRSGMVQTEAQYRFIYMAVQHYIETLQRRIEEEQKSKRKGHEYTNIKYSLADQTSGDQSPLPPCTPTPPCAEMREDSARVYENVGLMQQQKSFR
In words: SHP2 allosteric inhibition assay (DiFMUP prompt fluorescence). The test is classed as biochemical. As to conditions: 0.25 nM SHP2, 0.5 μM IRS1_pY1172(dPEG8)pY1222 peptide, DiFMUP 100 μM. The text has this:
SHP2 Allosteric Inhibition Assay.
SHP2 is allosterically activated through binding of bis-tyrosyl-phosphorylated peptides to its Src Homology 2 (SH2) domains. The latter activation step leads to the release of the auto-inhibitory interface of SHP2, which in turn renders the SHP2 protein tyrosine phosphatase (PTP) active and available for substrate recognition and reaction catalysis. The catalytic activity of SHP2 was monitored using the surrogate substrate DiFMUP in a prompt fluorescence assay format.
The inhibitor dose response curves were analyzed using normalized IC50 regression curve fitting with control based normalization.

With `Clc1ccccc1-c1coc2ccnn12` [Compound E4, 3-(2-chlorophenyl)pyrazolo[5,1-b]oxazole], the IC50 (Table 5) was > 100 µM.

As to `Cn1c(N2CCC(C)(CN)CC2)nc2[nH]nc(Sc3cccc(Cl)c3)c2c1=O` [Compound F8, 6-(4-(aminomethyl)-4-methylpiperidin-1-yl)-3-((3-chlorophenyl)thio)-5-methyl-1H-pyrazolo[3,4-d]pyrimidin-4(5H)-one], under “Table 6”, the IC50 was < 1 µM.

As for `COc1ccc(-c2nc(CSc3nnc(-c4ccco4)o3)cs2)cc1OC` [Compound C30], where the note is “Table 3”, the IC50 was > 1000 µM.

Consider `C[C@@H]1OCC2(CCN(c3nc4[nH]nc(N5CCc6ccccc6C5)c4c(=O)n3C)CC2)[C@@H]1N` [Compound F12, 6-[(3S,4S)-4-amino-3-methyl-2-oxa-8-azaspiro[4.5]decan-8-yl]-5-methyl-3-(1,2,3,4-tetrahydroisoquinolin-2-yl)-1H,4H,5H-pyrazolo[3,4-d]pyrimidin-4-one], for which the IC50 (Table 6) is < 1 µM.

`CC1(CN)CCN(c2cnn3c(-c4ccccc4Cl)coc23)C1` (stereo not drawn) [Compound E2, (1-(3-(2-chlorophenyl)pyrazolo[5,1-b]oxazol-7-yl)-3-methylpyrrolidin-3-yl)methanamine]: the IC50 (Table 5) is < 50 µM.

Consider `O=c1c2[nH]nc(-c3cccc(Cl)c3Cl)c2ncn1C1CCNCC1` [Compound F5, 3-(2,3-dichlorophenyl)-6-(piperidin-4-yl)-1H-pyrazolo[4,3-d]pyrimidin-7(6H)-one], for which the IC50 (Table 6) fell in the range of 1 to 20 µM.

In the case of `CC1(N)CCN(c2cc(=O)nc3[nH]nc(-c4cccc(Cl)c4F)n23)CC1` [Compound F2, 5-(4-amino-4-methylpiperidin-1-yl)-3-(3-chloro-2-fluorophenyl)-[1,2,4]triazolo[4,3-a]pyrimidin-7(1H)-one hydrochloride], the IC50 (Table 6) is > 20 µM.

Take `CC1(CN)CCN(c2nn3c(N)c(-c4cccc(Cl)c4Cl)nc3s2)C1` (stereo not drawn) [Compound A5, 2-(3-(aminomethyl)-3-methylpyrrolidin-1-yl)-6-(2,3-dichlorophenyl)imidazo[2,1-b][1,3,4]thiadiazol-5-amine]: the IC50 (Table 1) is < 5 µM.

Take `c1nnc(SCc2csc(-c3ccc4c(c3)OCO4)n2)s1` [Compound C13]: the IC50 (Table 3) was < 500 µM.

On to `CC1(CN)CCN(c2nn3c(N)c(-c4cccc(Cl)c4Cl)nc3s2)CC1` [Compound A9, 2-(4-(aminomethyl)-4-methylpiperidin-1-yl)-6-(2,3-dichlorophenyl)imidazo[2,1-b][1,3,4]thiadiazol-5-amine formate], for which the IC50 (Table 1) was in the range of 5 to 20 µM.

With `Cc1c(-c2ccccc2Cl)nc2sc(N3CCC(C)(N)C3)nn12` (stereo not drawn) [Compound A11, 1-(6-(2-chlorophenyl)-5-methylimidazo[2,1-b][1,3,4]thiadiazol-2-yl)-3-methylpyrrolidin-3-amine formate], where the note is “Table 1”, the IC50 is < 5 µM.

In the case of `COc1ccc(-c2nc(CSc3nnnn3C)cs2)cc1OC` [Compound C6], the half-inhibitory concentration (IC50) (Table 3) lay within 500 to 1000 µM.

`COc1ccc(-c2nc(CSc3nc4nc(C)cc(C)n4n3)cs2)cc1OC` [Compound C32]: where the note is “Table 3”, the IC50 is > 1000 µM.

Turning to `COc1ccc(-c2nc(CSc3cccc[n+]3[O-])cs2)cc1OC` [Compound C16], where the note is “Table 3”, the IC50 was < 500 µM.

For `CC1(CN)CCN(c2ncnc3c(-c4cccc(Cl)c4Cl)csc23)CC1` [Compound D2, (1-(7-(2,3-dichlorophenyl)thieno[3,2-d]pyrimidin-4-yl)-4-methylpiperidin-4-yl)methanamine], for the setting “Table 4”, the IC50 is 1 to 10 µM.

The compound `CC1(N)CCN(c2cnn3c(-c4ccccc4Cl)coc23)CC1` [Compound E1, 1-(3-(2-chlorophenyl)pyrazolo[5,1-b]oxazol-7-yl)-4-methylpiperidin-4-amine formate] showed a concentration for half-maximal inhibition (IC50) (Table 5) of 50 to 100 µM.

On to `Cc1ccc(-c2nc(C)c(C(=O)N3CCC(CN)C3)s2)c(C)c1` (stereo not drawn) [Compound C47], for which the IC50 (Table 3) is > 1000 µM.

As for `CC1(CN)CCN(c2nn3cc(-c4cccc(Cl)c4Cl)nc3s2)CC1` [Compound A2, (1-(6-(2,3-dichlorophenyl)imidazo[2,1-b][1,3,4]thiadiazol-2-yl)-4-methylpiperidin-4-yl)methanamine formate], for the setting “Table 1”, the IC50 lay within 5 to 20 µM.

In the case of `O=C(O)c1csc(-c2ccccc2Cl)n1` [Compound C42], the IC50 (Table 3) was > 1000 µM.

Under “Table 3”, `COc1cccc(-c2nc(CSc3nncs3)cs2)c1` [Compound C9] returned an IC50 of 500 to 1000 µM.

Take `CCC(=O)N(c1nnc(SCc2csc(-c3ccc(OC)c(OC)c3)n2)s1)C1CC1` [Compound C31]: the IC50 (Table 3) is > 1000 µM.

Consider `CC1(CN)CCN(c2ncc(C(=O)N3CCCc4ncccc43)s2)C1` (stereo not drawn) [Compound B2, (2-(3-(aminomethyl)-3-methylpyrrolidin-1-yl)thiazol-5-yl)(3,4-dihydro-1,5-naphthyridin-1(2H)-yl)methanone], for which the 50% inhibitory concentration (IC50) (Table 2) is > 100 µM.

Turning to `COc1cc(-c2nc(CSc3nnc(-c4ccccc4C)n3C)cs2)ccc1O` [Compound C18], the IC50 (Table 3) is 500 to 1000 µM.

In the case of `CC1(CN)CCN(c2nn3c(N)c(-c4ccccc4Cl)nc3s2)C1` (stereo not drawn) [Compound A6, 2-(3-(aminomethyl)-3-methylpyrrolidin-1-yl)-6-(2-chlorophenyl)imidazo[2,1-b][1,3,4]thiadiazol-5-amine], the IC50 (Table 1) lay in the range of 5 to 20 µM.

For `CC1(N)CCN(c2nc(N)c(-c3cccc(Cl)c3Cl)s2)CC1` [Compound B1, 2-(4-amino-4-methyl-1-piperidyl)-5-(2,3-dichlorophenyl)thiazol-4-amine, dihydrochloride], the IC50 (Table 2) is < 100 µM.

As for `NC1CCCN(C(=O)c2cnc(-c3ccc(C(F)(F)F)cc3)s2)CC1` (stereo not drawn) [Compound C48], the IC50 (Table 3) was > 1000 µM.

With `COc1cc(-c2nc(Cn3cccc(C(F)(F)F)c3=O)cs2)ccc1O` [Compound C21], the IC50 (Table 3) was < 500 µM.

Take `Cc1c(-c2ccccc2Cl)nc2sc(N3CCC(C)(CN)C3)nn12` (stereo not drawn) [Compound A10, (1-(6-(2-chlorophenyl)-5-methylimidazo[2,1-b][1,3,4]thiadiazol-2-yl)-3-methylpyrrolidin-3-yl)methanamine formate]: for the setting “Table 1”, the IC50 is < 5 µM.

With `COc1cc(-c2nc(CN3CCOCC3C)cs2)ccc1O` (stereo not drawn) [Compound C22], where the note is “Table 3”, the half-maximal inhibitory concentration (IC50) was > 1000 µM.

As for `CNCC1CCN(C(=O)Cc2csc(-c3ccc(Cl)cc3Cl)n2)C1` (stereo not drawn) [Compound C45], the concentration for half-maximal inhibition (IC50) (Table 3) is > 1000 µM.
